Results: publication PMC4718592, “Identification of Novel HLA-A*24:02-Restricted Epitope Derived from a Homeobox Protein Expressed in Hematological Malignancies” (PLoS ONE, 2016)

Columns and labels:
PBMNCs from HD = assay: PEPP2 expression after demethylating agent, healthy donor PBMNCs; format: cell-based, human; details: PBMCs from healthy donor, 200 nM for 72 hours
[1] = test system: PBMNCs from HLA-A*24:02-positive healthy donor; details: PBMNCs pretreated for 72 hours, 51Cr release
Protocol: (§1) PL21 and HL60 cells and PBMNCs from HD were cultured in AIM-V medium (Life Technologies) supplemented with 10% human serum (Lonza, Walkersville, MD) in 6-well culture plates and 200 nM of 5-aza-2′-deoxycytidine (Sigma-Aldrich) was added every 24 hours for 72 hours.
(§2) The cytotoxic activity of the CTLs was measured using a standard ^51Cr release assay. Target cells were labeled with 50 μCi of ^51Cr (PerkinElmer Inc., Waltham, MA) for 60 min at 37°C. CIR-A24 cells were then incubated with 5 μg/mL of peptide for 1 hour. For the blocking assay, KMS21 cells were treated with mouse anti-HLA class I antibody (w6/32; eBioscience, San Diego, CA) or mouse IgG isotype antibody (eBioscience). The target cells were mixed with effector cells. After 4 hours, supernatants were transferred to LumaPlates (PerkinElmer) and allowed to air dry in a hood overnight. Plates were sealed and counted in MicroBeta® Trilux instrument (PerkinElmer). Percent specific lysis for ^51Cr release was calculated as [(experimental ^51Cr release—spontaneous ^51Cr release) / (maximum ^51Cr release—spontaneous ^51Cr release)] x 100.

leukemia cells = assay: Viability of leukemia cells after drug treatment; details: data not shown
PL21 cells [2] = assay: 51Cr release cytotoxicity of PEPP2-specific CTLs against drug-pretreated PL21 cells; details: PL21 pretreated for 72 hours
Protocol: as §1, §2

HL60 and PL21 cells = assay: PEPP2 expression after demethylating agent, leukemia cell lines (RT-PCR, quantitative PCR, immunohistochemistry); format: cell-based
PL21 cells [3] = details: flow cytometry
[4] = test system: HLA-A*24:02 positive lymphocytes isolated from healthy donors; assay: Induction of PEPP2 peptide-specific CTLs from PBMCs of healthy donors; format: cell-based, human; details: HLA-A*24:02 positive healthy donor lymphocytes stimulated with peptide-pulsed DC and PHA blasts; IFN-γ ELISpot
Protocol: CTLs were generated by in vitro stimulation with peptide-pulsed autologous dendritic cells and phytohemagglutinin (PHA) blasts. Briefly, PBMNCs were isolated from whole blood of HLA-A*24:02-positive HD by Ficoll density gradient centrifugation. Dendritic cells (DC) were generated by isolating CD14^+ cells using a MACS separation system (Miltenyi Biotec, Bergisch Gladbach, Germany). The CD14^+ cells were cultured in AIM-V medium supplemented with 10% human serum, 100 ng/mL of IL-4 (R&D Systems) and 100 ng/mL of GM-CSF (R&D Systems) for 5 days, then 20 ng/mL of TNF-α (R&D Systems) was added to generate DC. PHA blasts were derived from CD14^- cells by culturing in AIM-V medium supplemented with 10% human serum, 100 units of IL-2 and 1μ g/mL of PHA for 2 days. The DC or PHA blasts were pulsed with 50μg/L of peptide at room temperature for 3 hours and then irradiated (mediXtec, Chiba, Japan). On day 0, CD14^- cells were stimulated with irradiated peptide-pulsed DC in AIM-V medium with 10% human serum supplemented with 10 ng/mL of IL-7 (R&D Systems), then 50 ng/mL of IL-2 was added every 2 to 3 days. The cells were stimulated weekly with irradiated peptide-pulsed autologous PHA blasts, then CD3^+CD8^+ cells were purified with immunomagnetic beads (Miltenyi Biotec).
IFN-γ secretion of CTLs in response to target cells was detected using ELISpot assay. Briefly, effector cells were incubated with target cells in plates coated with anti-IFNγ antibody (1-D1K; Mabtech Inc., Cincinnati, OH). After incubation for 20 hours, biotinylated antibody specific for IFN γ (7-B6-1; Mabtech) was added for 2 hours at room temperature and then streptavidin-alkaline phosphatase (Mabtech) was added for 1 hour. To develop spots, nitroblue tetrazolium and 5-bromo-4-chloro-3-indolyl phosphate (Biorad) were added and the color development was stopped by rinsing with distilled water. The resulting spots were counted using a CTL-ImmunoSpot® analyzer (Cellular Technology Ltd., Shaker Heights, OH)

HLA-A24 [5] = assay: Peptide binding assay on CIR-A24 cells; details: 50 μg/mL peptide + 5 μg/mL β2-microglobulin, serum-free media, 24 hours, FITC anti-HLA-A24 staining, MFI with peptide / MFI without peptide, average of the two assays
Protocol: (§3) We assessed the binding ability of candidate peptides to HLA-A24 as described previously. CIR-A24 cells were incubated with 50 μg/mL peptides and 5μg/ mL of β2-microglobulin in serum-free media for 24 hours. After washing with PBS, the expression of HLA-A24 was measured by staining the cells with FITC-conjugated anti-HLA-A24 antibody (Mitsubishi-Kagaku, Tokyo, Japan). We also checked the stability of candidate peptides bound to the HLA-A24 molecule. CIR-A24 cells were incubated with 50 μg/mL peptides and 5 μg/mL of β2-microglobulin in serum-free media for 24 hours, followed by addition of 50 μg/ mL of brefeldin A (Sigma-Aldrich) for 4 hours. The expression of HLA-A24 was detected by staining the cells with FITC-conjugated anti-HLA-A24 antibody (Mitsubishi). MFI (mean fluorescence intensity) ratio was calculated as follows; MFI of CIR-A24 pulsed with each candidate peptide / MFI of CIR-A24 without peptide.

HLA-A24 [6] = assay: Peptide stability assay on CIR-A24 cells (brefeldin A); format: binding; details: 50 μg/mL peptide + 5 μg/mL β2-microglobulin, 24 hours, then 50 μg/mL brefeldin A for 4 hours, FITC anti-HLA-A24 staining, MFI with peptide / MFI without peptide, average of the two assays
Protocol: as §3

CIR-A24 cells = assay: 51Cr release cytotoxicity assay of PEPP2-specific CTLs against peptide-pulsed cells; format: cell-based
Source text: The target cells were mixed with effector cells.

Row | Compound | Binding MFI ratio (HLA-A24 [5]) | Stability MFI ratio (HLA-A24 [6]) | also measured
1 | Nc1ncn([C@H]2C[C@H](O)[C@@H](CO)O2)c(=O)n1 [5-aza-2′-deoxycytidine] |  |  | PEPP2 gene and protein expression after treatment (PBMNCs from HD): did not change; Recognition of treated normal PBMNCs by PEPP2-specific CTLs [1]: didn’t recognize; Viability of leukemia cells after treatment with the drug (leukemia cells): more than 90%; Cytotoxicity of PEPP2-specific CTLs against treated cells compared with non-treated cells (PL21 cells [2]): enhanced cytotoxicity; PEPP2 gene expression after treatment (HL60 and PL21 cells; HL60 and PL21, 200 nM for 72 hours, RT-PCR / quantitative PCR): significantly up-regulated; PEPP2 protein expression after treatment (HL60 and PL21 cells; treated vs untreated cells, 200 nM for 72 hours, immunohistochemistry): increased; HLA-class I expression after treatment (PL21 cells [3]): up-regulated; PD-L1 expression level after treatment (PL21 cells [3]; confirmed by quantitative PCR): slightly up-regulated
2 | AFTPIQLQEL [PEPP2^140-149] | 1.363 | 0.851 | Induction of PEPP2-specific CTL [4]: could not induce PEPP2-specific CTL
3 | CSQYMTSSL [PEPP2^7-15] | 1.103 | 1.041 | 
4 | DMNAMVSL [PEPP2^27-35] | 0.936 | 0.831 | 
5 | DYFWDHSHS [PEPP2^231-239] | 0.889 | 0.869 | 
6 | EFGPFPFVI [PEPP2^271-279] | 1.153 | 1.201 | Induction of PEPP2-specific CTL [4]: could induce PEPP2-specific CTL; Lysis of peptide-pulsed C1R-A24 cells by PEPP2-specific CTLs (CIR-A24 cells; 4 hours, targets pulsed with 5 μg/mL peptide): could lyse C1R-A24 cells only when the target cells were pulsed; Dose dependence of recognition by CTLs (CIR-A24 cells; CIR-A24 pulsed with various concentrations of peptide, E/T ratio of 30): peptide dose-dependent
7 | ERIFQREQF [PEPP2^150-158] | 0.747 | 0.690 | 
8 | FTPLQLQEL [PEPP2^141-149] | 0.860 | 0.687 | 
9 | FVIVPSFTF [PEPP2^277-285] | 1.181 | 0.928 | 
10 | GGAGVPGHL [PEPP2^81-89] | 0.852 | 0.785 | 
11 | KWRRHQRAL [PEPP2^188-196, PEPP2-derived candidate peptide …] | 0.772 | 0.714 | 
12 | LQDMNAMVL [PEPP2^25-33] | 0.768 | 0.761 | 
13 | LQLQELERI [PEPP2^144-152] | 0.695 | 0.738 | 
14 | MPPFPPPSL [PEPP2^246-254] | 0.985 | 0.914 | 
15 | PFPPPSLPL [PEPP2^248-256] | 1.069 | 0.926 | 
16 | QCSQYMTSL [PEPP2^6-14] | 0.724 | 0.614 | 
17 | QGTAAGEKL [PEPP2^52-60] | 0.820 | 0.938 | 
18 | QLQELERIF [PEPP2^145-153] | 0.767 | 1.071 | 
19 | QYMTSLLSPA [PEPP2^9-18] | 1.354 | 0.865 | 
20 | QYSRPQGAV [PEPP2^117-125] | 0.882 | 0.977 | 
21 | RALMARNML [PEPP2^194-202] | 0.954 | 0.599 | 
22 | RPQGAVGGL [PEPP2^120-128] | 0.746 | 0.754 | 
23 | SLPLPLMLL [PEPP2^253-261] | 1.277 | 1.103 | Induction of PEPP2-specific CTL [4]: could not induce PEPP2-specific CTL
24 | TYGPVFMCL [EBV, reference compound] | 1.204 | 1.320 | 
25 | VHAFTPLQL [PEPP2^138-146] | 0.992 | 0.748 | 
